Tests used:
Test in all cases: radiometric filter-binding kinase assay, Kinase HotSpot
Conditions in all cases: compound 0.5 µM; ATP 10 µM
ADRBK2 (human) = ADRBK2 (human) (UniProt P35626)
MKNK2 (human) = MKNK2 (human) (UniProt Q9HBH9)
TSSK2 (human) = TSSK2 (human) (UniProt Q96PF2)
MAP3K9 (human) = MAP3K9 (human) (UniProt P80192)
CSNK1D (human) = CSNK1D (human) (UniProt P48730)
MAPK14 (human) = MAPK14 (human) (UniProt Q16539)
PIM2 (human) = PIM2 (human) (UniProt Q9P1W9)
JAK3 JH1 JH2 (human) = JAK3 JH1 JH2 (human) (UniProt P52333)
CAMK2D (human) = CAMK2D (human) (UniProt Q13557)
NLK (human) = NLK (human) (UniProt Q9UBE8)
PRKD1 (human) = PRKD1 (human) (UniProt Q15139)
IRAK4 (human) = IRAK4 (human) (UniProt Q9NWZ3)
IRAK4 (human), sequence (Q9NWZ3 whole entry, looked up): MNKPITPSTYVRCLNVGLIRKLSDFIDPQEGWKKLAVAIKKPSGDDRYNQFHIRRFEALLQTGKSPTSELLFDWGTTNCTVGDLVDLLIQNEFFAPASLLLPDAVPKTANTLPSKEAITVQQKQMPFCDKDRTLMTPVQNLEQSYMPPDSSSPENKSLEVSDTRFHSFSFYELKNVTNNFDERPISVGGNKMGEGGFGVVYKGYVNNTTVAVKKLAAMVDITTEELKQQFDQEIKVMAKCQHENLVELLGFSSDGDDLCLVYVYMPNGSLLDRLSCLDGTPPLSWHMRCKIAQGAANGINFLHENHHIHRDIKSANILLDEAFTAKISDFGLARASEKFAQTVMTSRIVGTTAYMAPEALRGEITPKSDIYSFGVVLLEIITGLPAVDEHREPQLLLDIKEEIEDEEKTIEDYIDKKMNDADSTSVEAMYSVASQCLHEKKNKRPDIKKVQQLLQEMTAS

MARK4 (human) = MARK4 (human) (UniProt Q96L34)
NEK7 (human) = NEK7 (human) (UniProt Q8TDX7)
CHEK1 (human) = CHEK1 (human) (UniProt O14757)
CHEK1 (human), sequence (O14757 whole entry, looked up): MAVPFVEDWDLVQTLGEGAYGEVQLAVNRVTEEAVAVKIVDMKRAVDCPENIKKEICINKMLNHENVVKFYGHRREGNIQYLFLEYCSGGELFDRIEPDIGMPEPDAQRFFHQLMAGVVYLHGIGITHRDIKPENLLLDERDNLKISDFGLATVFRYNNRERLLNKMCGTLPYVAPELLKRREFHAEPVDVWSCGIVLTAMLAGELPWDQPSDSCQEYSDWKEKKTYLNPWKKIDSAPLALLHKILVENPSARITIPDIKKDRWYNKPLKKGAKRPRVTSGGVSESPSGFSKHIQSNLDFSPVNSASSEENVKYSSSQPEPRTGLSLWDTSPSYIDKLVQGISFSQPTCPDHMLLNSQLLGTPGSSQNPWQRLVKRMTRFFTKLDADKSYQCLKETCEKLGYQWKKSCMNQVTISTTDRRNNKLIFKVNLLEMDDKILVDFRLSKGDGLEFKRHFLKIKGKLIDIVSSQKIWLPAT

ULK2 (human) = ULK2 (human) (UniProt Q8IYT8)
TYRO3 (human) = TYRO3 (human) (UniProt Q06418)
NTRK1 (human) = NTRK1 (human) (UniProt P04629)
DAPK2 (human) = DAPK2 (human) (UniProt Q9UIK4)
GSK3B (human) = GSK3B (human) (UniProt P49841)
PASK (human) = PASK (human) (UniProt Q96RG2)
SGK2 (human) = SGK2 (human) (UniProt Q9HBY8)
SGK2 (human), sequence (Q9HBY8 whole entry, looked up): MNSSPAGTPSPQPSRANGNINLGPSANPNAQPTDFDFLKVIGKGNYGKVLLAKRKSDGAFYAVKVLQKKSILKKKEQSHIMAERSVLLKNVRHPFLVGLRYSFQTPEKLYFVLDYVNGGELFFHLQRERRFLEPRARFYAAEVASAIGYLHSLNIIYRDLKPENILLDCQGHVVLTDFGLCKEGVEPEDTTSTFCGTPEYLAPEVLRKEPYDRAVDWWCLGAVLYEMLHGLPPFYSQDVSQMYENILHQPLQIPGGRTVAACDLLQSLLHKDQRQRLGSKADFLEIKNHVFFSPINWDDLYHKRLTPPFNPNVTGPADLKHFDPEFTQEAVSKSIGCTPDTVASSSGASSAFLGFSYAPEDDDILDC

CDK5 CDK5R1 p35 (human) = CDK5 CDK5R1 p35 (human) (UniProt Q00535+Q15078)
PIM1 (human) = PIM1 (human) (UniProt P11309)
ACVR1B (human) = ACVR1B (human) (UniProt P36896)
RAF1 (human) = RAF1 (human) (UniProt P04049)
NTRK2 (human) = NTRK2 (human) (UniProt Q16620)
PRKACA (human) = PRKACA (human) (UniProt P17612)
MAP4K4 (human) = MAP4K4 (human) (UniProt O95819)
MAP4K4 (human), sequence (O95819 whole entry, looked up): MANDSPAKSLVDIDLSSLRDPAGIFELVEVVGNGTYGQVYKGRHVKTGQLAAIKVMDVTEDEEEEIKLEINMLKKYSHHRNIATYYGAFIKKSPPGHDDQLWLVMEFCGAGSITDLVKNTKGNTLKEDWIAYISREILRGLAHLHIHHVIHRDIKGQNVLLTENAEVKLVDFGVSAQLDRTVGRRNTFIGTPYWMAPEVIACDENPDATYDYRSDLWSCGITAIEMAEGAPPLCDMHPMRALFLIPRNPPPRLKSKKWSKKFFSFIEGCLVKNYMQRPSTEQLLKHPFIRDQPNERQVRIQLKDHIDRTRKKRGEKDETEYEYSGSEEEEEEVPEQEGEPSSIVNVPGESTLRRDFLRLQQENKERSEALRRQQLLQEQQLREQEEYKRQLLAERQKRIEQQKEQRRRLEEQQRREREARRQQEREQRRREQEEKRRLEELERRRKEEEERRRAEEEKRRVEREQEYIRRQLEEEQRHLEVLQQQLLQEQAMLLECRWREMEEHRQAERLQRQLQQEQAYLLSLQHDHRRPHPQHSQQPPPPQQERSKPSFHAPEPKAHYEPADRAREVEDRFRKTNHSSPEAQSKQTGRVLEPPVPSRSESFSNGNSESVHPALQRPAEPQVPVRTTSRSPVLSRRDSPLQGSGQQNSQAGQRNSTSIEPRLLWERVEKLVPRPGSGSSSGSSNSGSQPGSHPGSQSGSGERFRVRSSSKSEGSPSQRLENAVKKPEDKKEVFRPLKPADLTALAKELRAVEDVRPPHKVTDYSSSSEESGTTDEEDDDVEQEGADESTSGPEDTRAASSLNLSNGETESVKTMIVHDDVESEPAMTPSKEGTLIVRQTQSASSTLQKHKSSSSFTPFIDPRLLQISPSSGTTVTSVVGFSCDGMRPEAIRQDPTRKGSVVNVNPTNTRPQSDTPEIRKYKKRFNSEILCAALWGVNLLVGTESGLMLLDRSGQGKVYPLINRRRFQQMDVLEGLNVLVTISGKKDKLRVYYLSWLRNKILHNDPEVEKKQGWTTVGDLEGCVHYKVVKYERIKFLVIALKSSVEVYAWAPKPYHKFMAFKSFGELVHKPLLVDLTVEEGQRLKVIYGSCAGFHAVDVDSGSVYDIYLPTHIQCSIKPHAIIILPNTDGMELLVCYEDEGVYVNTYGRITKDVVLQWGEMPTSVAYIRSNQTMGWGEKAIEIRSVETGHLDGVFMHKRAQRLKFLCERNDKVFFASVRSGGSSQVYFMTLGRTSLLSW

GRK6 (human) = GRK6 (human) (UniProt P43250)
FGR (human) = FGR (human) (UniProt P09769)
CLK4 (human) = CLK4 (human) (UniProt Q9HAZ1)
SRPK2 (human) = SRPK2 (human) (UniProt P78362)
STK16 (human) = STK16 (human) (UniProt O75716)
BRSK2 (human) = BRSK2 (human) (UniProt Q8IWQ3)
WNK2 (human) = WNK2 (human) (UniProt Q9Y3S1)
JAK2 JH1 JH2 (human) = JAK2 JH1 JH2 (human) (UniProt O60674)
JAK2 JH1 JH2 (human), sequence (O60674 whole entry, looked up): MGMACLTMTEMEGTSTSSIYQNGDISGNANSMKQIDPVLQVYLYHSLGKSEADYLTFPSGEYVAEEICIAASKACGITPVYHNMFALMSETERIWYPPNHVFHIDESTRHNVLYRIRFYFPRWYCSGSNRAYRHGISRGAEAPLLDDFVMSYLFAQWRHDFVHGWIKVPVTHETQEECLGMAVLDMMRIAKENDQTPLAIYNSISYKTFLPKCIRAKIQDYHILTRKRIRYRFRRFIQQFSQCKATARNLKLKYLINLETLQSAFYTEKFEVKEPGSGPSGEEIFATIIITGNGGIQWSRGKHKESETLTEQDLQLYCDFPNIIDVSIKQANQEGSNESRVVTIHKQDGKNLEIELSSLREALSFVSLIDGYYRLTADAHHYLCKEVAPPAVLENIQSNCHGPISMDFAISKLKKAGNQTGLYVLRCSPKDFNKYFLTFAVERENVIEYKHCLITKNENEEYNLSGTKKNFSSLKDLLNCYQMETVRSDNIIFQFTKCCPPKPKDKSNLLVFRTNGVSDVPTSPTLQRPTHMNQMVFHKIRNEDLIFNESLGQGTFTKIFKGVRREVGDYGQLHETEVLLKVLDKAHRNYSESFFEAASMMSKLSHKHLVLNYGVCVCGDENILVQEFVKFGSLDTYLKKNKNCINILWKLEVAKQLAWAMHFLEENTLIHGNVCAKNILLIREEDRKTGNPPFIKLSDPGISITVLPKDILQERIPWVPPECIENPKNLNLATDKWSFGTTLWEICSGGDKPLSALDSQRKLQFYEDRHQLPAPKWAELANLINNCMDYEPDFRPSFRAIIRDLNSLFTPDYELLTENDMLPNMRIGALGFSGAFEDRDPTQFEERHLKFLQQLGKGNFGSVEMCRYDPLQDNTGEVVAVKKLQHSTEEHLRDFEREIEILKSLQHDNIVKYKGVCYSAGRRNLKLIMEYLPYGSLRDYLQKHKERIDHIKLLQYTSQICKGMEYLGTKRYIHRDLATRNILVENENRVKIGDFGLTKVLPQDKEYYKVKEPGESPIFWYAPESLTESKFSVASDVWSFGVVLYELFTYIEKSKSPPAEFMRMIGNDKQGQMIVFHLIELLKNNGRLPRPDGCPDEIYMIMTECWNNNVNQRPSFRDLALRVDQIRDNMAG

HIPK3 (human) = HIPK3 (human) (UniProt Q9H422)
CDK4 CCND1 (human) = CDK4 CCND1 (human) (UniProt P24385+P11802)
NUAK1 (human) = NUAK1 (human) (UniProt O60285)
MAP3K11 (human) = MAP3K11 (human) (UniProt Q16584)
FRK (human) = FRK (human) (UniProt P42685)
FRK (human), sequence (P42685 whole entry, looked up): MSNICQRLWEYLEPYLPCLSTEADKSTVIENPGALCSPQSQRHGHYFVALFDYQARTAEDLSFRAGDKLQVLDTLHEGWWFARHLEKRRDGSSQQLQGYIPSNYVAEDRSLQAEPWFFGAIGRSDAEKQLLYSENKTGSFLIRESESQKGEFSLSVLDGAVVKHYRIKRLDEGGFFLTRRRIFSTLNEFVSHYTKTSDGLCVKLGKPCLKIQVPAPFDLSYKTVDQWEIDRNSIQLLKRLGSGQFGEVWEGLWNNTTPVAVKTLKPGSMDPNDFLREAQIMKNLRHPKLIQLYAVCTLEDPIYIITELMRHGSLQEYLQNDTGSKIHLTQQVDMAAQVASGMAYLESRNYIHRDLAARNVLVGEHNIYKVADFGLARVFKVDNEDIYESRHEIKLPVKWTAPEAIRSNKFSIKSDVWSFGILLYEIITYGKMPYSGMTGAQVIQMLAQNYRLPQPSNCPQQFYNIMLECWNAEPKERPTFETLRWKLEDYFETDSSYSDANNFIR

MKNK2 (human), sequence (Q9HBH9 whole entry, looked up): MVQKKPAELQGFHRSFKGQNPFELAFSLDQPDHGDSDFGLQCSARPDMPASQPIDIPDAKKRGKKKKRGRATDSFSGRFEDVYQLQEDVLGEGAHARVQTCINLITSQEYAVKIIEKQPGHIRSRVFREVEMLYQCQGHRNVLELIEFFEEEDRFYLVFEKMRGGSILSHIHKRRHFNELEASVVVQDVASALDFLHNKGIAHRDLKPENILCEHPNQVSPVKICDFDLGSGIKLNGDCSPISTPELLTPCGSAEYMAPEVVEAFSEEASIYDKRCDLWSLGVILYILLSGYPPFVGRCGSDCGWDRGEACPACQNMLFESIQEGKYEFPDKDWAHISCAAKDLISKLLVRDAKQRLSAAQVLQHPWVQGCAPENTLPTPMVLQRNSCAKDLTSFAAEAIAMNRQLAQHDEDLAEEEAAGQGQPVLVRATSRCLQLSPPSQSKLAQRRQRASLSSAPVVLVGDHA
PIM2 (human), sequence (Q9P1W9 whole entry, looked up): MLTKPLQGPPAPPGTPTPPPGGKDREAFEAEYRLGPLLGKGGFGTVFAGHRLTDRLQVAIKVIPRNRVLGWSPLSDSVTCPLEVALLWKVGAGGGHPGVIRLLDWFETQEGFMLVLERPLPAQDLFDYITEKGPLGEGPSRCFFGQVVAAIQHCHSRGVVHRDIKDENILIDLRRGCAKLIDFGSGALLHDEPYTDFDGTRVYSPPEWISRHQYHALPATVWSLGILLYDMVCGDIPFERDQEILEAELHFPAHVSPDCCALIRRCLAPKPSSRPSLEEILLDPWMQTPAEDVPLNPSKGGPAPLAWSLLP

N#Cc1c(NC(=O)c2cccc3ccccc23)sc2c1CCCC2
residual activity (ADRBK2 (human)): 106% | residual activity (MKNK2 (human)): 106% | residual activity (TSSK2 (human)): 104% | residual activity (MAP3K9 (human)): 99.5% | residual activity (CSNK1D (human)): 106% | residual activity (MAPK14 (human)): 98.1% | residual activity (PIM2 (human)): 104% | residual activity (JAK3 JH1 JH2 (human)): 101% | residual activity (CAMK2D (human)): 97.7% | residual activity (NLK (human)): 99.4% | residual activity (PRKD1 (human)): 101% | residual activity (IRAK4 (human)): 92.9% | residual activity (MARK4 (human)): 101% | residual activity (NEK7 (human)): 89.2% | residual activity (CHEK1 (human)): 104% | residual activity (ULK2 (human)): 112% | residual activity (TYRO3 (human)): 101% | residual activity (NTRK1 (human)): 105% | residual activity (DAPK2 (human)): 105% | residual activity (GSK3B (human)): 97.5% | residual activity (PASK (human)): 98.3% | residual activity (SGK2 (human)): 101% | residual activity (CDK5 CDK5R1 p35 (human)): 105% | residual activity (PIM1 (human)): 105% | residual activity (ACVR1B (human)): 96.5% | residual activity (RAF1 (human)): 92.9% | residual activity (NTRK2 (human)): 100% | residual activity (PRKACA (human)): 102% | residual activity (MAP4K4 (human)): 88.9% | residual activity (GRK6 (human)): 108% | residual activity (FGR (human)): 98.1% | residual activity (CLK4 (human)): 92% | residual activity (SRPK2 (human)): 99.2% | residual activity (STK16 (human)): 98.5% | residual activity (BRSK2 (human)): 100% | residual activity (WNK2 (human)): 109% | residual activity (JAK2 JH1 JH2 (human)): 103% | residual activity (HIPK3 (human)): 116% | residual activity (CDK4 CCND1 (human)): 98.7% | residual activity (NUAK1 (human)): 97.3% | residual activity (MAP3K11 (human)): 103% | residual activity (FRK (human)): 104%

N#C/C(=C1/Nc2ccccc2S1)c1ccnc(NCCc2cccnc2)n1
residual activity (ADRBK2 (human)): 99.1% | residual activity (MKNK2 (human)): 51% | residual activity (TSSK2 (human)): 102% | residual activity (MAP3K9 (human)): 100% | residual activity (CSNK1D (human)): 65% | residual activity (MAPK14 (human)): 89.1% | residual activity (PIM2 (human)): 91.2% | residual activity (JAK3 JH1 JH2 (human)): 106% | residual activity (CAMK2D (human)): 89.3% | residual activity (NLK (human)): 94.9% | residual activity (PRKD1 (human)): 82.4% | residual activity (IRAK4 (human)): 83.7% | residual activity (MARK4 (human)): 91.6% | residual activity (NEK7 (human)): 88.2% | residual activity (CHEK1 (human)): 94.6% | residual activity (ULK2 (human)): 116% | residual activity (TYRO3 (human)): 98.3% | residual activity (NTRK1 (human)): 106% | residual activity (DAPK2 (human)): 119% | residual activity (GSK3B (human)): 6.2% | residual activity (PASK (human)): 64.1% | residual activity (SGK2 (human)): 100% | residual activity (CDK5 CDK5R1 p35 (human)): 97.2% | residual activity (PIM1 (human)): 11.6% | residual activity (ACVR1B (human)): 97.1% | residual activity (RAF1 (human)): 84% | residual activity (NTRK2 (human)): 93.2% | residual activity (PRKACA (human)): 103% | residual activity (MAP4K4 (human)): 87.1% | residual activity (GRK6 (human)): 87.6% | residual activity (FGR (human)): 86.1% | residual activity (CLK4 (human)): 43.8% | residual activity (SRPK2 (human)): 97.1% | residual activity (STK16 (human)): 79.2% | residual activity (BRSK2 (human)): 88.1% | residual activity (WNK2 (human)): 106% | residual activity (JAK2 JH1 JH2 (human)): 106% | residual activity (HIPK3 (human)): 106% | residual activity (CDK4 CCND1 (human)): 90.4% | residual activity (NUAK1 (human)): 91.8% | residual activity (MAP3K11 (human)): 72.2% | residual activity (FRK (human)): 97.5%

O=C1NC(=O)c2cc(Nc3ccc(F)cc3)c(Nc3ccc(F)cc3)cc21
residual activity (ADRBK2 (human)): 104% | residual activity (MKNK2 (human)): 101% | residual activity (TSSK2 (human)): 97.2% | residual activity (MAP3K9 (human)): 102% | residual activity (CSNK1D (human)): 109% | residual activity (MAPK14 (human)): 88.3% | residual activity (PIM2 (human)): 98.6% | residual activity (JAK3 JH1 JH2 (human)): 93.9% | residual activity (CAMK2D (human)): 97.9% | residual activity (NLK (human)): 103% | residual activity (PRKD1 (human)): 92.2% | residual activity (IRAK4 (human)): 98.1% | residual activity (MARK4 (human)): 98.2% | residual activity (NEK7 (human)): 103% | residual activity (CHEK1 (human)): 104% | residual activity (ULK2 (human)): 84.7% | residual activity (TYRO3 (human)): 94.8% | residual activity (NTRK1 (human)): 93.6% | residual activity (DAPK2 (human)): 96.7% | residual activity (GSK3B (human)): 89.2% | residual activity (PASK (human)): 91.3% | residual activity (SGK2 (human)): 99.7% | residual activity (CDK5 CDK5R1 p35 (human)): 98.5% | residual activity (PIM1 (human)): 81.8% | residual activity (ACVR1B (human)): 94.2% | residual activity (RAF1 (human)): 81.9% | residual activity (NTRK2 (human)): 91.9% | residual activity (PRKACA (human)): 94.5% | residual activity (MAP4K4 (human)): 91.2% | residual activity (GRK6 (human)): 98.7% | residual activity (FGR (human)): 96.3% | residual activity (CLK4 (human)): 88.6% | residual activity (SRPK2 (human)): 92.3% | residual activity (STK16 (human)): 85.8% | residual activity (BRSK2 (human)): 96.8% | residual activity (WNK2 (human)): 110% | residual activity (JAK2 JH1 JH2 (human)): 94.6% | residual activity (HIPK3 (human)): 95.3% | residual activity (CDK4 CCND1 (human)): 101% | residual activity (NUAK1 (human)): 94% | residual activity (MAP3K11 (human)): 98.4% | residual activity (FRK (human)): 97.2%

Source: the kinase profiling compilation of Christmann-Franck et al. (2016)
